# Marks after values point to notes of the source that are not given here.
# System: male rats
# Assay: Plasma metabolite profiling (GC-MS, LC-MS, SPE-LC-MS) in male rats dosed once daily over 28 days (OECD 407)
# Format: in vivo, rat
# Details: male rats, plasma, high dose
# Method: Each dose group in the studies consisted of five rats per sex. Additional groups of each 5 male and female animals served as controls. […] All animals of the animal population were kept under the same constant temperature (20-24±3° C.) and the same constant humidity (30-70%). The animals of the animal population were fed ad libitum. The food to be used was essentially free of chemical or microbial contaminants. Drinking water was also offered ad libitum. Accordingly, the water was free of chemical and microbial contaminants as laid down in the European Drinking Water Directive 98/83/EG. The illumination period was 12 hours light followed by 12 hours darkness (12 hours light, from 6:00 to 18:00, and 12 hours darkness, from 18:00 to 6:00). […] The test substances (compounds) in the Tables 1 to 17 below were dosed and administered as described in the Table 18.
# In the morning of day 7, 14, and 28, blood was taken from the retroorbital venous plexus from fasted anaesthetized animals. From each animal, 1 ml of blood was collected with EDTA as anticoagulant. The samples were centrifuged for generation of plasma. All plasma samples were covered with a N2 atmosphere and then stored at −80° C. until analysis.
# For mass spectrometry-based metabolite profiling analyses plasma samples were extracted and a polar and a non-polar (lipid) fraction was obtained. For GC-MS analysis, the non-polar fraction was treated with methanol under acidic conditions to yield the fatty acid methyl esters. Both fractions were further derivatised with O-methyl-hydroxyamine hydrochloride and pyridine to convert Oxogroups to O-methyloximes and subsequently with a silylating agent before analysis. In LC-MS analysis, both fractions were reconstituted in appropriate solvent mixtures. HPLC was performed by gradient elution on reversed phase separation columns. Mass spectrometric detection which allows target and high sensitivity MRM (Multiple Reaction Monitoring) profiling in parallel to a full screen analysis was applied as described in WO2003073464.
# Steroids and their metabolites were measured by online SPE-LC-MS (Solid phase extraction-LC-MS).
# Following comprehensive analytical validation steps, the data for each analyte were normalized against data from pool samples. These samples were run in parallel through the whole process to account for process variability. The significance of treatment group values specific for sex, treatmentduration and metabolite was determined by comparing means of the treated groups to the means of the respective untreated control groups using WELCH-test and quantified with treatment ratios versus control and p-values.
# The identification of the most important biomarkers per toxicity pattern was done by a ranking of the analytes in the tables below. Therefore the metabolic changes in reference treatments of a given pattern (shown in the table) were compared with changes of the same metabolite in other unrelated treatments. […] The maximum absolute value of the respective TVALUE was taken to indicate the most important metabolite for the pattern.
structure (smiles),measurement,setting,value
CC(=O)O[C@]1(C(C)=O)CC[C@H]2[C@@H]3C[C@H](C)C4=CC(=O)CC[C@]4(C)[C@H]3CC[C@@]21C [Medroxyprogesterone acetat],"Alanine, ratio versus control",day 7,0.73 *
same,"Androstenedione, ratio versus control",day 7,1.68
same,"Cholesterol, ratio versus control",day 7,0.9
same,"Glycine, ratio versus control",day 7,1.05 *
same,"Heptadecanoic acid (C17:0), ratio versus control",day 7,0.98
same,"Testosterone, ratio versus control",day 7,2
same,"Threonine, ratio versus control",day 7,0.82 *
same,"Uric acid, ratio versus control",day 7,0.6 *
same,"alpha-Tocopherol, ratio versus control",day 7,0.82 *
same,"Alanine, ratio versus control",day 14,0.97
same,"Androstenedione, ratio versus control",day 14,0.28 *
same,"Cholesterol, ratio versus control",day 14,0.69 *
same,"Glycine, ratio versus control",day 14,1.06
same,"Heptadecanoic acid (C17:0), ratio versus control",day 14,0.92
same,"Testosterone, ratio versus control",day 14,0.22 *
same,"Threonine, ratio versus control",day 14,1
same,"Uric acid, ratio versus control",day 14,1.07
same,"alpha-Tocopherol, ratio versus control",day 14,0.82 *
same,"Androstenedione, ratio versus control",day 28,0.1 *
same,"Testosterone, ratio versus control",day 28,0.08 *

# — patent publication US20150010928A1, “MEANS AND METHODS FOR ASSESSING AN ENDOCRINE DISEASE OR DISORDER” (priority 2012, published 2015)
